Measurements: patent US20060216779A1, “Method for the detection of post-translational modification activities and device system for carrying out said method” (priority 2003, published 2006)

What was measured:
[1] = measurement of the relative dielectric constant ε of the peptide in water in a measuring capacitor; type: physicochemical; settings: dissolved in water, 1.14 mM, 4 microlitres, t=23° C.
Description: According to further variant for the detection of posttranslational activities, the dielectric constant (permittivity) of a liquid sample with a sensor is measured. As is evident from FIG. 3A, the sample is located in a detection cell (measuring cell 11) serving as a capacitor. The introduction of a polarizing dielectric between the capacitor plates reduces the electric field intensity in vacuum E0 to P/ε0: E=E0−P/ε0 (4) where […] and P is the induced polarization of the dielectric with dielectric constant ε.
The polypeptides (S1) or (S2) dissolved in water have been placed as a dielectric between the electrode plates of the measuring capacitor (measuring cell 11), see FIG. 3A. Polypeptide ELDVPIPGRFDRRVSVAAD (S1) is a specific substrate for protein kinase A which catalyses the phosphorylation of serine. Phosphatase PP2B implements the dephosphorylation of serine of the polypeptide ELDVPIPGRFDRRVpSVAAD (S2). […]
Regarding the detection of peptide modification in tests through the measurement of the relative dielectric constant ε, the following should be added: four microlitres of samples, each containing the polypeptide S1 (unphosphorylated) or S2 (phosphorylated) (table 1), dissolved in water to a concentration of 1.14 mM, are directly introduced between the electrode plates of a measuring capacitor. The dielectric constant ε is measured at a temperature of t=23° C. […]

[2] = measurement of the frequency shift of an oscillator with the peptide sample as core of the induction coil; type: physicochemical; settings: 150 μL sample, 1.14M in water, t=22° C., f0=5342.9 kHz; S2 instead of S1
From the text: According to a further variant of the method for the detection of posttranslational activities, the polypeptides (S1) or (S2) dissolved in water and used as substrates are located in a measuring cell with an inductivity of L and a capacitance of C which functions as an oscillator (FIG. 5). The frequency ω can be determined by […] which can be measured to a high degree of accuracy (10^−5).
For the detection of peptide modification through the measurement of the frequency shift of an oscillator, an experiment was carried out as follows:
A tube containing 150 μL of samples with unphosphorylated peptide S1 or phosphorylated peptide S2 (concentration […] in water) was placed as the core in an induction coil of an oscillator. Frequency f was measured at temperature t=22° C., f0=5342.9 kHz.

| oscillator frequency change [2] | Substance | dielectric constant ε [1] |
| --- | --- | --- |
|  | ELDVPIPGRFDRRVSVAAD [Sensor S1, synthesized polypeptide sensor, specific substrate for protein kinase A] | 76 |
| distinct reduction in frequency | ELDVPIPGRFDRRVpSVAAD [Sensor S2] | 70 |
